According to patent publication US7777000B2, “Anti-viral activity of cathelicidin peptides” (priority 2003, dated 2010):
Several values for one entry are separate records, joined by “and”; a condition that tells them apart may be missing. Identical values can stand only once. Entries after “also recorded” stand apart in the source; their conditions may differ. Where no end group is shown, it is not given here.

How the values were obtained:
vaccinia virus [1] = type: cell-based, vaccinia virus (Wyeth strain)
vaccinia virus [2] = type: cell-based, vaccinia virus (Wyeth strain); remark: listed apart in the source
vaccinia virions (IMV) = tested on: vaccinia virions (IMV); design: species or system vaccinia virus (Wyeth strain); conditions: for alteration of virion structure: 25 μM
E. coli ML35p = assay: Minimum bactericidal concentration / antimicrobial activity against E. coli ML35p; type: cell-based; conditions: for Minimum Bactericidal Concentration: mean of three independent experiments

Row | Molecule | amount of viral mRNA in the tissue culture cells (vaccinia virus [1]) | contact time with vaccinia required to detect antiviral activity (vaccinia virus [2]) | effective antiviral concentration relative to that required for killing of S. aureus (vaccinia virus [2]) | lowest concentration with significant reduction in viral replication (vaccinia virus [2]) [µM] | Altered virions (%) (vaccinia virions (IMV)) | Altered virions/virion number (vaccinia virions (IMV)) | antimicrobial activity against E. coli ML35p (E. coli ML35p) | inhibition of vaccinia virus replication (plaque-forming units) (vaccinia virus [2]) | effect on the structure of the IMV (electron microscopy) (vaccinia virions (IMV)) | alteration of virion structure (vaccinia virions (IMV)) | inhibition of vaccinia virus replication at concentrations as high as 50 μM (vaccinia virus [2]) | Minimum Bactericidal Concentration (E. coli ML35p) | Minimum Bactericidal Concentration (E. coli ML35p; listed as HNP)
1 | CC[C@H](C)[C@H](NC(=O)[C@H](CCCCN)NC(=O)[C@H](CCC(=O)O)NC(=O)[C@H](CCCCN)NC(=O)[C@H](CO)NC(=O)[C@H](CCCCN)NC(=O)[C@H](CCCNC(=N)N)NC(=O)[C@H](Cc1ccccc1)NC(=O)[C@H](Cc1ccccc1)NC(=O)[C@H](CC(=O)O)NC(=O)CNC(=O)[C@H](CC(C)C)NC(=O)[C@@H](N)CC(C)C)C(=O)NCC(=O)N[C@@H](CCCCN)C(=O)N[C@@H](CCC(=O)O)C(=O)N[C@@H](Cc1ccccc1)C(=O)N[C@@H](CCCCN)C(=O)N[C@@H](CCCNC(=N)N)C(=O)N[C@H](C(=O)N[C@H](C(=O)N[C@@H](CCC(N)=O)C(=O)N[C@@H](CCCNC(=N)N)C(=O)N[C@H](C(=O)N[C@@H](CCCCN)C(=O)N[C@@H](CC(=O)O)C(=O)N[C@@H](Cc1ccccc1)C(=O)N[C@@H](CC(C)C)C(=O)N[C@@H](CCCNC(=N)N)C(=O)N[C@@H](CC(N)=O)C(=O)N[C@@H](CC(C)C)C(=O)N[C@H](C(=O)N1CCC[C@H]1C(=O)N[C@@H](CCCNC(=N)N)C(=O)N[C@H](C(=O)N[C@@H](CCC(=O)O)C(=O)N[C@@H](CO)C(=O)O)[C@@H](C)O)C(C)C)[C@@H](C)CC)C(C)C)[C@@H](C)CC [LL-37, LLGDFFRKSK EKIGKEFKR1 VQRIKDFLRN LVPRTES] | decreased in proportion to the concentration | At least one hour | at least one log lower | 25 | 67% and 90% and 95% | 19/28 and 27/30 and 39/41 | within reported parameters | – | – | – | – | – | –
2 | GLLRKGGEKIGEKLKKIGQKIKNFFQKLVPQPEQ (GLLRKGGEKIGEKLKKIGQKIKNFFQKLVPQPEQ) [CRAMP] | decreased in proportion to the concentration | – | at least one log lower | 25 | – | – | within reported parameters | concentration-dependent inhibition; also recorded: able to kill vaccinia virus | – | – | – | – | –
3 | GLNGPDIYKGUYQFKSVEFD [Peptide 8044] | – | – | – | – | – | – | no antimicrobial activity; also recorded: did not exhibit antimicrobial activity; also recorded: ^aControl peptide 8044 did not possess antimicrobial activity against ML35p | did not inhibit virus replication; also recorded: no antiviral activity | did not have an effect on virion structure | *25 μM HNP-1 and control peptides did not alter virion structure | – | – | –
4 | HBD-1 (DHYNCVSSGGQCLYSACPIFTKIQGTCYRGKAKCCK; ends and bridges not checked; cysteine pairing not given here; UniProt P60022 33-68, looked up) | – | – | – | – | – | – | – | did not inhibit viral replication | – | – | did not inhibit vaccinia virus replication | 16.02 µM and 16.03 ± 1.20 µM | –
5 | HNP-1 | – | – | – | – | – | – | active against E. coli | did not inhibit virus replication; also recorded: did not inhibit viral replication | did not have an effect on virion structure | *25 μM HNP-1 and control peptides did not alter virion structure | did not inhibit vaccinia virus replication | – | 8.42 µM and 8.42 ± 0.43 µM
